pIC50: −log10 of the molar value. Where a name gives a salt, the structure may show the parent alone.
Target: T1, human TRPM8 (Homo sapiens, UniProt Q7Z2W7)
T1 construct: expressed in transfected cells; host or cells: Chinese hamster ovary (CHO) cells, T-REx tetracycline-inducible system, co-transfected with aequorin
Test: Luminescence readout assay for measuring intracellular calcium, icilin activation
Format: cell-based
Conditions: CHO cells expressing human TRPM8, aequorin luminescence, 1 μM icilin activation; read-out: hTRPM8 IC50
Method in brief: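 The read-out was luminescence reporting intracellular calcium, recorded by a CCD-based luminometer. Compounds were preincubated for 2.5 min before agonist challenge with 1 μM icilin. Human TRPM8 was expressed in a stable T-REx CHO line, induced with 0.5 μg/mL tetracycline the day before.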

T1 sequence (Q7Z2W7 whole entry): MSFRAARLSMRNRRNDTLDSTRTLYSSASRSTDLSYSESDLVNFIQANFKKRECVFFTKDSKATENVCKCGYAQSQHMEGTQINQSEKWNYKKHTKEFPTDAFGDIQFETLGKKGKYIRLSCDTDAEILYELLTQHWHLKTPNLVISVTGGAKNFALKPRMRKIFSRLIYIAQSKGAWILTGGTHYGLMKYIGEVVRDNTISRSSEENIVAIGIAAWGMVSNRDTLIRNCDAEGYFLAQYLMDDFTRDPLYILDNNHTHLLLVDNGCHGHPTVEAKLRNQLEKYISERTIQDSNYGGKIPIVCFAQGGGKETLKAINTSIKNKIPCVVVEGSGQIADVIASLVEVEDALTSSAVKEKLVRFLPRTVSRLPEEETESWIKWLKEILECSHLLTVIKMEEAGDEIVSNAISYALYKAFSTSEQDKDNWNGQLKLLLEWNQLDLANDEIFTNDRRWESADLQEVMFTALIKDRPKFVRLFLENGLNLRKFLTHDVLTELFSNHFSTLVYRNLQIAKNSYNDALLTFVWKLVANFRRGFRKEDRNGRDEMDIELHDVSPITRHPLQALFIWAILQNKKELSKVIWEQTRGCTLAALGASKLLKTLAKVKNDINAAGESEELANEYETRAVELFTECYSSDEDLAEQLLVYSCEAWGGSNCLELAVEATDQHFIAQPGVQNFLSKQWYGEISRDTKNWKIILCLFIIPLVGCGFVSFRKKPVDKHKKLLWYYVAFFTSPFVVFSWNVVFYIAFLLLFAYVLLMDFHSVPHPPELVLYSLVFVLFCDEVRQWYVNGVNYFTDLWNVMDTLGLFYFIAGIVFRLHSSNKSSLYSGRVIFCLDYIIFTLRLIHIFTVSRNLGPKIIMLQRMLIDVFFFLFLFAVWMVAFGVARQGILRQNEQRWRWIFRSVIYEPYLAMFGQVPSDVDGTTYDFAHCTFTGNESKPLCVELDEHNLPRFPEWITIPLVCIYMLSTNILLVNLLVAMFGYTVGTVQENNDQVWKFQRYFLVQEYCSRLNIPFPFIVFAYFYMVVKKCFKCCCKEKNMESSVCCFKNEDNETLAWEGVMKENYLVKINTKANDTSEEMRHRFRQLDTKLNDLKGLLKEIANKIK

pIC50 | Structure (SMILES)
6.19 | O=C(O)c1cccc(C(=O)N[C@@H](c2ccc(OC(F)(F)F)c(F)c2)c2ncccc2F)n1 [Example 415, (S)-6-(((3-fluoro-4-(trifluoromethoxy)phenyl)(3-fluoropyridin-2-yl)methyl)carbamoyl)picolinic acid trifluoroacetate]
6.88 | O=C(N[C@@H](c1ccc(C(F)(F)F)cc1)c1ncccc1F)c1c[nH]c(=O)cn1 [Example 319, (S)-N-((3-fluoropyridin-2-yl)(4-(trifluoromethyl)phenyl)methyl)-5-oxo-4,5-dihydropyrazine-2-carboxamide]
6.73 | N#Cc1cc(C(=O)N[C@@H](c2ccc(C(F)(F)F)cc2)c2ncccc2F)c[nH]c1=O [Example 277, (S)-5-Cyano-N-((3-fluoropyridin-2-yl)(4-(trifluoromethyl)-phenyl)methyl)-6-oxo-1,6-dihydropyridine-3-carboxamide]
8.05 | O=C(N[C@@H](c1ccc(C(F)(F)F)cc1)c1ncccc1C(F)(F)F)c1ccc2c(c1)CNC2=O [Example 271, (S)-1-Oxo-N-((4-(trifluoromethyl)phenyl)(3-(trifluoromethyl)-pyridin-2-yl)methyl)isoindoline-5-carboxamide]
6.46 | O=C(CCc1ccccn1)N[C@@H](c1ccc(C(F)(F)F)cc1)c1ncccc1C(F)(F)F [Example 284, (S)-3-(Pyridin-2-yl)-N-((4-(trifluoromethyl)phenyl)(3-(trifluoromethyl)pyridin-2-yl)methyl)propanamide]
7.44 | C[C@H](O)Cn1cc(C(=O)N[C@@H](c2ccc(OC(F)(F)F)c(F)c2)c2ncccc2F)ccc1=O [Example 298, N-((S)-(3-fluoro-4-(trifluoromethoxy)phenyl)(3-fluoropyridin-2-yl)methyl)-1-((S)-2-hydroxypropyl)-6-oxo-1,6-dihydropyridine-3-carboxamide]
7.66 | O=C(O)c1ccc(C(=O)N[C@@H](c2ccc(C(F)(F)F)cc2)c2ncccc2C(F)(F)F)cc1 [Example 283, (S)-4-(((4-(Trifluoromethyl)phenyl)(3-(trifluoromethyl)-pyridin-2-yl)methyl)carbamoyl)benzoic Acid]
7.41 | O=C(N[C@@H](c1ccc(C(F)(F)F)cc1)c1ncccc1F)c1ccc(=O)[nH]n1 [Example 317, (S)-N-((3-fluoropyridin-2-yl)(4-(trifluoromethyl)phenyl)methyl)-6-oxo-1,6-dihydropyridazine-3-carboxamide]
8.16 | O=C(N[C@@H](c1ccc(OC(F)(F)F)c(F)c1)c1ncccc1Br)c1ccc(=O)[nH]c1 [Example 382, (S)-N-((3-bromopyridin-2-yl)(3-fluoro-4-(trifluoromethoxy)phenyl)methyl)-6-oxo-1,6-dihydropyridine-3-carboxamide]
7.81 | O=C(N[C@@H](c1ccc(OC(F)(F)F)c(F)c1)c1ncccc1F)c1ccc(=O)[nH]n1 [Example 349, (S)-N-((3-fluoro-4-(trifluoromethoxy)phenyl)(3-fluoropyridin-2-yl)methyl)-6-oxo-1,6-dihydropyridazine-3-carboxamide]
7.05 | O=C(N[C@@H](c1ccc(C(F)(F)F)cc1)c1ncccc1F)c1ccc(=O)n(CC(F)(F)F)c1 [Example 372, (S)-N-((3-fluoropyridin-2-yl)(4-(trifluoromethyl)phenyl)methyl)-6-oxo-1-(2,2,2-trifluoroethyl)-1,6-dihydropyridine-3-carboxamide]
7.70 | Cc1cccnc1[C@@H](NC(=O)c1ccc(=O)n(C)c1)c1ccc(OC(F)(F)F)cc1 [Example 360, (S)-1-methyl-N-((3-methylpyridin-2-yl)(4-(trifluoromethoxy)phenyl)methyl)-6-oxo-1,6-dihydropyridine-3-carboxamide]
7.28 | O=C(N[C@@H](c1ccc(I)cc1)c1ncccc1C(F)(F)F)c1ccc(=O)[nH]c1 (stereo in doubt) [Example 376, N-((4-iodophenyl)(3-(trifluoromethyl)pyridin-2-yl)methyl)-6-oxo-1,6-dihydropyridine-3-carboxamide]

Continued, molecule first:

Structure (SMILES) | pIC50
Cc1cc(C)n2nc(C(=O)N[C@@H](c3ccc(C(F)(F)F)cc3)c3ncccc3C(F)(F)F)nc2n1 [Example 151, (S)-5,7-dimethyl-N-((4-(trifluoromethyl)phenyl)(3-(trifluoromethyl)pyridin-2-yl)methyl)-[1,2,4]triazolo[1,5-a]pyrimidine-2-carboxamide 2,2,2-trifluoroacetate] | 6.40
O=C(N[C@@H](c1ccc(C(F)(F)F)cc1)c1ncccc1C(F)(F)F)c1cnc(O)nc1 [Example 266, (S)-2-Hydroxy-N-((4-(trifluoromethyl)phenyl)(3-(trifluoro-methyl)pyridin-2-yl)methyl)pyrimidine-5-carboxamide] | 6.65
O=C(N[C@@H](c1ccc2ncccc2c1)c1ncccc1C(F)(F)F)c1ccc2cccnc2c1 [Example 22, (S)-N-(quinolin-6-yl(3-(trifluoromethyl)pyridin-2-yl)methyl)quinoline-7-carboxamide] | 6.38
O=C(N[C@@H](c1ccc(C(F)(F)F)cc1)c1ncccc1C(F)(F)F)c1ccc(Cl)nc1 [Example 135, (S)-6-chloro-N-((4-(trifluoromethyl)phenyl)(3-(trifluoromethyl)pyridin-2-yl)methyl)nicotinamide] | 7.71
O=C(N[C@@H](c1ccc(C(F)(F)F)cc1)c1ncccc1C(F)(F)F)c1ccccn1 [Example 228, (S)-N-((4-(trifluoromethyl)phenyl)(3-(trifluoromethyl)pyridin-2-yl)methyl)picolinamide] | 7.40
COc1ccc(C(=O)N[C@@H](c2ccc(C(F)(F)F)cc2)c2ncccc2F)cc1 [Example 172, (S)-N-((3-fluoropyridin-2-yl)(4-(trifluoromethyl)phenyl)methyl)-4-methoxybenzamide] | 7.74
CC(O)c1ccc([C@H](NC(=O)c2ccc3cccnc3c2)c2ncccc2C(F)(F)F)cc1 (stereo partly drawn) [Example 26, N-((1S)-(4-(1-hydroxyethyl)phenyl)(3-(trifluoromethyl)pyridin-2-yl)methyl)quinoline-7-carboxamide] | 5.48
O=C(N[C@@H](c1ccc(C(F)(F)F)cc1)c1ncccc1C(F)(F)F)c1cncc(O)c1 [Example 58, (S)-5-hydroxy-N-((4-(trifluoromethyl)phenyl)(3-(trifluoromethyl)pyridin-2-yl)methyl)nicotinamide] | 7.19
CC#Cc1cccnc1[C@@H](NC(=O)c1ccccc1)c1ccc(C(F)(F)F)cc1 [Example 98, (S)-N-((3-(prop-1-yn-1-yl)pyridin-2-yl)(4-(trifluoromethyl)phenyl)methyl)benzamide] | 6.90
CC1(C#Cc2cccnc2[C@@H](NC(=O)c2ccc3ncccc3c2)c2ccc(C(F)(F)F)cc2)COC1 [Example 101, (S)-N-((3-((3-methyloxetan-3-yl)ethynyl)pyridin-2-yl)(4-(trifluoromethyl)phenyl)methyl)quinoline-6-carboxamide 2,2,2-trifluoroacetate] | 6.40
COc1cccc([C@H](NC(=O)c2ccc3cccnc3c2)c2ncccc2C(F)(F)F)c1 [Example 24, (S)-N-((3-methoxyphenyl)(3-(trifluoromethyl)pyridin-2-yl)methyl)quinoline-7-carboxamide] | 6.50
O=C(NC(c1ccc(C(F)(F)F)cc1)c1ncccc1F)c1cccc(F)c1 (stereo not drawn) [Example 209, 3-fluoro-N-((3-fluoropyridin-2-yl)(4-(trifluoromethyl)phenyl)methyl)benzamide] | 6.98
CCCc1cccnc1[C@@H](NC(=O)c1ccc(=O)[nH]c1)c1ccc(C(F)(F)F)cc1 [Example 267, (S)-6-Oxo-N-((3-propylpyridin-2-yl)(4-(trifluoromethyl)-phenyl)methyl)-1,6-dihydropyridine-3-carboxamide] | 8.00
O=C(N[C@@H](c1ccc(C(F)(F)F)cc1)c1ncccc1F)c1ccc2ccc(=O)[nH]c2c1 [Example 125, (S)-N-((3-fluoropyridin-2-yl)(4-(trifluoromethyl)phenyl)methyl)-2-oxo-1,2-dihydroquinoline-7-carboxamide] | 6.75
O=C(N[C@@H](c1ccc(C(F)(F)F)cc1)c1ncccc1C(F)(F)F)c1ccc(OC(F)(F)F)cc1 [Example 231, (S)-4-(trifluoromethoxy)-N-((4-(trifluoromethyl)phenyl)(3-(trifluoromethyl)pyridin-2-yl)methyl)benzamide] | 6.34
O=C(Cc1ccccc1)N[C@@H](c1ccc(C(F)(F)F)cc1)c1ncccc1C(F)(F)F [Example 218, (S)-2-phenyl-N-((4-(trifluoromethyl)phenyl)(3-(trifluoromethyl)pyridin-2-yl)methyl)acetamide] | 6.64
COc1ncc(C(=O)N[C@@H](c2ccc(C(F)(F)F)cc2)c2ncccc2F)cn1 [Example 264, (S)—N-((3-Fluoropyridin-2-yl)(4-(trifluoromethyl)phenyl)methyl)-2-methoxypyrimidine-5-carboxamide] | 6.60
COc1cc(C(=O)N[C@@H](c2ccc(C(F)(F)F)cc2)c2ncccc2C(F)(F)F)ccn1 [Example 34, (S)-2-methoxy-N-((4-(trifluoromethyl)phenyl)(3-(trifluoromethyl)pyridin-2-yl)methyl)isonicotinamide] | 7.49
COc1ccc(C(=O)N[C@@H](c2ccc(C(F)(F)F)cc2)c2ncccc2C(F)(F)F)nc1 [Example 210, (S)-5-methoxy-N-((4-(trifluoromethyl)phenyl)(3-(trifluoromethyl)pyridin-2-yl)methyl)picolinamide] | 6.82
COc1cccc2cc([C@H](NC(=O)c3ccc4cccnc4c3)c3ncccc3C(F)(F)F)cnc12 [Example 23, (S)-N-((8-methoxyquinolin-3-yl)(3-(trifluoromethyl)pyridin-2-yl)methyl)quinoline-7-carboxamide] | 5.97
